Data on one compound can be found in ChEMBL document CHEMBL2412962, “Human acidic mammalian chitinase as a novel target for anti-asthma drug design using in silico screening” (Bioorg Med Chem, 2013).

SMILES strings stand for the structures.

In this assay the target is Acidic mammalian chitinase (Homo sapiens, UniProt Q9BZP6). Description: Inhibition of His-tagged recombinant human acidic mammalian chitinase expressed in Escherichia coli Rosetta-gami 2 (DE3) using 4MU-(GlcNAc)2 as substrate assessed as production of 4-methylumbelliferone measured every 5 mins by fluorescence assay.
Acidic mammalian chitinase, sequence (Q9BZP6 whole entry): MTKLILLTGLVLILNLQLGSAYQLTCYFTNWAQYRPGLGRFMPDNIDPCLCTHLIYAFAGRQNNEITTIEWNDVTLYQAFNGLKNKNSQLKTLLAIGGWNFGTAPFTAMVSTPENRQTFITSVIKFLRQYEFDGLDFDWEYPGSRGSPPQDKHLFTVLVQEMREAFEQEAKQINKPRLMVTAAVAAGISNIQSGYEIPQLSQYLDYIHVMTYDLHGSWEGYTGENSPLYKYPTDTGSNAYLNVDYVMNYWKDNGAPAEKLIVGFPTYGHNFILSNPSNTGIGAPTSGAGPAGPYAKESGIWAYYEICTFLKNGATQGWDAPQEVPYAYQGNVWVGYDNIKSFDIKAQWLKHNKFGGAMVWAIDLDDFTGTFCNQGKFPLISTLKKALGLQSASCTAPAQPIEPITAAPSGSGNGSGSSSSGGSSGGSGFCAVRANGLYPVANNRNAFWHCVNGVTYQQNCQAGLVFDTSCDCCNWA

For `CN=C(S)NNC(=O)c1oc2nc(-c3ccccc3)cc(C)c2c1N`, the IC50 was determined as 30 µM.

A word on the IC50: it is the concentration that gives 50% inhibition.
